Test results as given in US20260116910A1, “POLYCYCLIC COMPOUNDS AND METHODS THEREOF” (HEPAITECH (BEIJING) BIOPHARMA TECHNOLOGY CO., LTD., priority 2021, published 2026).

What was measured:
MRGPRX4 = MRGPRX4 (Homo sapiens, UniProt Q96LA9); assay: MRGPRX4 activation, Fluo-8 Ca2+ FLIPR assay in HEK293T cells stably expressing MRGPRX4; assay type: cell-based; set-up: key to MRGPRX4 activation, Average / MRGPRX4 activation, Ave.: fluorescence change dF/F0; conditions: for EC50: MRGPRX4 activation, Ca2+ fluorescence, no activation in tested range reported as III, read-out: Activity (EC50 μM)
In short: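 Cells seeded overnight to >95% confluence, loaded 40-60 min at room temperature with 2 μM Fluo-8 AM, then kept in HHBS. Baseline read 30 s, compound added, signal followed 150 s more.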

human FXR (NR1H4) = molecular target: T1, human FXR (NR1H4) (Homo sapiens, UniProt Q96RI1); assay: Human FXR (NR1H4) agonist assessment, FXRE-NanoLuc reporter in HEK293T cells; assay type: cell-based; conditions: FXR activation, HEK293T FXRE-NanoLuc reporter, 24 hr; for EC50: read-out: EC50
T1 sequence (Q96RI1 1-476 isoform Q96RI1-1): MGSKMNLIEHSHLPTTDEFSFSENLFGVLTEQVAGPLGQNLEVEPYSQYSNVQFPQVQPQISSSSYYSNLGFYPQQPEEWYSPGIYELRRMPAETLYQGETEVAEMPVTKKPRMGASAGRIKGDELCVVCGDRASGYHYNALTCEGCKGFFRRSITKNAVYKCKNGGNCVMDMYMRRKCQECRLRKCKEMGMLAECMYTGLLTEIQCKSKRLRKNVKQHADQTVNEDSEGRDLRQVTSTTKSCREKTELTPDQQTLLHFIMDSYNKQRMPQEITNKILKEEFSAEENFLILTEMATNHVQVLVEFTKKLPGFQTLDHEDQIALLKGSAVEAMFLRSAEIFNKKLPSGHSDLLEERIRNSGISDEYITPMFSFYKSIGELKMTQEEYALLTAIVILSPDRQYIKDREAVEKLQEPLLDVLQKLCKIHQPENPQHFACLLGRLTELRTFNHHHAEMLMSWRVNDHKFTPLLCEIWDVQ
In short: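 HEK293T cells stably expressing human FXR with an FXRE-NanoLuc reporter were treated with compounds for 24 hr at 37 °C, with 0.01% DMSO as negative control. Medium was read for luminescence after 5 min with coelenterazine. EC50 was fitted by sigmoid to concentration-response data.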

Sequence of MRGPRX4 (Q96LA9 whole entry): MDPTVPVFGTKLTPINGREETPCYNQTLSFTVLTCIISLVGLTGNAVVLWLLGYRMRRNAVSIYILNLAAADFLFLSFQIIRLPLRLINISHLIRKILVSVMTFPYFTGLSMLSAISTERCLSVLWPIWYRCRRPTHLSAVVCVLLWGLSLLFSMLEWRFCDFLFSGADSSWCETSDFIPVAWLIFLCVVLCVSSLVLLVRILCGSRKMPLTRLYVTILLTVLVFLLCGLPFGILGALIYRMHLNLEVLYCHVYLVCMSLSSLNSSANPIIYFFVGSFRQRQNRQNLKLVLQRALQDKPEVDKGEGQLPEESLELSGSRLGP

For `CC[C@H]1[C@@H](O)[C@@H]2[C@H](CC[C@]3(C)[C@@H]([C@H](C)COC(=O)NS(=O)(=O)c4ccc(N5CCCCC5)nc4)CC[C@@H]23)[C@@]2(C)CCCC[C@@H]12` [18-3], the “MRGPRX4 activation, Average” value (MRGPRX4; E3-9, Conc. (Log[M]) −4.0) was 0.519, the “MRGPRX4 activation, Average” value (MRGPRX4; E3-9, Conc. (Log[M]) −4.5) was 0.027 and the “MRGPRX4 activation, Average” value (MRGPRX4; E3-9, Conc. (Log[M]) −5.0) was 0.021. For the same compound, the “MRGPRX4 activation, Average” value (MRGPRX4; E3-9, Conc. (Log[M]) −5.4) was 0.018, the “MRGPRX4 activation, Average” value (MRGPRX4; E3-9, Conc. (Log[M]) −5.9) was 0.018 and the EC50 (MRGPRX4) was over 100 µM. For the same compound, the “Activation (%)” value (MRGPRX4; second E3-8-1, 4.6 nM, n = 1) was 3.17%, the “Activation (%)” value (MRGPRX4; second E3-8-1, 4.6 nM, n = 2) was 2.86% and the “Activation (%)” value (MRGPRX4; second E3-8-1, 14 nM, n = 1) was 2.86%. The “Activation (%)” value (MRGPRX4; second E3-8-1, 14 nM, n = 2) was 2.55%, the “Activation (%)” value (MRGPRX4; second E3-8-1, 41 nM, n = 1) was 2.86% and the “Activation (%)” value (MRGPRX4; second E3-8-1, 41 nM, n = 2) was 2.55%. For the same compound, the “Activation (%)” value (MRGPRX4; second E3-8-1, 123 nM, n = 1) was 2.86%, the “Activation (%)” value (MRGPRX4; second E3-8-1, 123 nM, n = 2) was 2.86% and the “Activation (%)” value (MRGPRX4; second E3-8-1, 370 nM, n = 1) was 2.24%. The “Activation (%)” value (MRGPRX4; second E3-8-1, 370 nM, n = 2) was 3.48%, the “Activation (%)” value (MRGPRX4; second E3-8-1, 1111 nM, n = 1) was 2.55% and the “Activation (%)” value (MRGPRX4; second E3-8-1, 1111 nM, n = 2) was 2.24%. The “Activation (%)” value (MRGPRX4; second E3-8-1, 3333 nM, n = 1) was 3.17%, the “Activation (%)” value (MRGPRX4; second E3-8-1, 3333 nM, n = 2) was 2.24% and the “Activation (%)” value (MRGPRX4; second E3-8-1, 10000 nM, n = 1) was 2.24%. The “Activation (%)” value (MRGPRX4; second E3-8-1, 10000 nM, n = 2) was 2.86%, the “Activation (%)” value (MRGPRX4; second E3-8-1, 30000 nM, n = 1) was 1.63% and the “Activation (%)” value (MRGPRX4; second E3-8-1, 30000 nM, n = 2) was 0.08%. For the same compound, the “Efficacy (maximum measured induction of NanoLuc, normalized to CDCA set as 100%)” value (human FXR (NR1H4)) was “A (efficacy >400%)” and the EC50 (human FXR (NR1H4)) was under 1 µM.

`CC[C@H]1[C@@H](O)[C@@H]2[C@H](CC[C@]3(C)[C@@H]([C@H](C)CCNC(=O)NS(=O)(=O)c4ccc(C(C)(CO)CO)cc4)CC[C@@H]23)[C@@]2(C)CCCC[C@@H]12` [5-22] was tested, and the “MRGPRX4 activation, fluorescence change (dF/F0), Average” value (shortened to “MRGPRX4 activation, fluorescence change”) (MRGPRX4; Conc. (Log[M]) −4.0) was 0.020, the “MRGPRX4 activation, fluorescence change” value (MRGPRX4; Conc. (Log[M]) −4.5) was 0.018 and the “MRGPRX4 activation, fluorescence change” value (MRGPRX4; Conc. (Log[M]) −5.0) was 0.013. The “MRGPRX4 activation, fluorescence change” value (MRGPRX4; Conc. (Log[M]) −5.4) was 0.013, the “MRGPRX4 activation, fluorescence change” value (MRGPRX4; Conc. (Log[M]) −5.9) was 0.011 and the “MRGPRX4 activation, fluorescence change” value (MRGPRX4; Conc. (Log[M]) −6.4) was 0.016. The “MRGPRX4 activation, fluorescence change” value (MRGPRX4; Conc. (Log[M]) −6.9) was 0.016, the “MRGPRX4 activation, fluorescence change” value (MRGPRX4; Conc. (Log[M]) −7.3) was 0.018 and the “MRGPRX4 activation, fluorescence change” value (MRGPRX4; Conc. (Log[M]) −7.8) was 0.014. The “MRGPRX4 activation, fluorescence change” value (MRGPRX4; Conc. (Log[M]) −8.3) was 0.016, the EC50 (MRGPRX4) was over 100 µM and the “Efficacy (maximum measured induction of NanoLuc, normalized to CDCA set as 100%)” value (human FXR (NR1H4)) was “C (100%<efficacy <=300%)”. It also gave an EC50 (human FXR (NR1H4)) of under 1 µM.

In the case of `C[C@H](CCCC(=O)O)[C@H]1CC[C@H]2[C@@H]3CC[C@@H]4C[C@H](O)CC[C@]4(C)[C@H]3C[C@H](O)[C@]12C` [RC-2], the “MRGPRX4 activation, fluorescence change” value (MRGPRX4; Conc. (Log[M]) −4) is reported as 0.242, the “MRGPRX4 activation, fluorescence change” value (MRGPRX4; Conc. (Log[M]) −4.5) is reported as 0.159 and the “MRGPRX4 activation, fluorescence change” value (MRGPRX4; Conc. (Log[M]) −5) is reported as 0.126. The “MRGPRX4 activation, fluorescence change” value (MRGPRX4; Conc. (Log[M]) −5.5) was 0.034, the “MRGPRX4 activation, fluorescence change” value (MRGPRX4; Conc. (Log[M]) −6) was 0.017 and the “MRGPRX4 activation, fluorescence change” value (MRGPRX4; Conc. (Log[M]) −7) was −0.012. The “MRGPRX4 activation, fluorescence change” value (MRGPRX4; Conc. (Log[M]) −8) was −0.010, the “MRGPRX4 activation, fluorescence change” value (MRGPRX4; Conc. (Log[M]) −9) was −0.018 and the EC50 (MRGPRX4) was under 50 µM. For the same compound, the “Efficacy (maximum measured induction of NanoLuc, normalized to CDCA set as 100%)” value (human FXR (NR1H4)) was “B (300%<efficacy <=400%)” and the EC50 (human FXR (NR1H4)) was 1 to 10 µM.

`CC[C@H]1[C@@H](O)[C@@H]2[C@H](CC[C@]3(C)[C@@H]([C@H](C)COC(=O)NS(=O)(=O)c4ccc(C(C)(C)CF)cc4)CC[C@@H]23)[C@@]2(C)CCCC[C@@H]12` [18-1] was tested, and the “MRGPRX4 activation, Average” value (MRGPRX4; E3-9, Conc. (Log[M]) −4.0) was 0.168, the “MRGPRX4 activation, Average” value (MRGPRX4; E3-9, Conc. (Log[M]) −4.5) was 0.003 and the “MRGPRX4 activation, Average” value (MRGPRX4; E3-9, Conc. (Log[M]) −5.0) was 0.008. The “MRGPRX4 activation, Average” value (MRGPRX4; E3-9, Conc. (Log[M]) −5.4) was 0.019, the “MRGPRX4 activation, Average” value (MRGPRX4; E3-9, Conc. (Log[M]) −5.9) was 0.018 and the EC50 (MRGPRX4) was over 100 µM. The “Activation (%)” value (MRGPRX4; second E3-8-1, 4.6 nM, n = 1) was 3.17%, the “Activation (%)” value (MRGPRX4; second E3-8-1, 4.6 nM, n = 2) was 2.86% and the “Activation (%)” value (MRGPRX4; second E3-8-1, 14 nM, n = 1) was 2.86%. For the same compound, the “Activation (%)” value (MRGPRX4; second E3-8-1, 14 nM, n = 2) was 3.17%, the “Activation (%)” value (MRGPRX4; second E3-8-1, 41 nM, n = 1) was 2.55% and the “Activation (%)” value (MRGPRX4; second E3-8-1, 41 nM, n = 2) was 3.48%. For the same compound, the “Activation (%)” value (MRGPRX4; second E3-8-1, 123 nM, n = 1) was 2.55%, the “Activation (%)” value (MRGPRX4; second E3-8-1, 123 nM, n = 2) was 3.17% and the “Activation (%)” value (MRGPRX4; second E3-8-1, 370 nM, n = 1) was 3.17%. The “Activation (%)” value (MRGPRX4; second E3-8-1, 370 nM, n = 2) was 3.48%, the “Activation (%)” value (MRGPRX4; second E3-8-1, 1111 nM, n = 1) was 2.86% and the “Activation (%)” value (MRGPRX4; second E3-8-1, 1111 nM, n = 2) was 2.86%. The “Activation (%)” value (MRGPRX4; second E3-8-1, 3333 nM, n = 1) was 1.93%, the “Activation (%)” value (MRGPRX4; second E3-8-1, 3333 nM, n = 2) was 2.55% and the “Activation (%)” value (MRGPRX4; second E3-8-1, 10000 nM, n = 1) was 2.86%. The “Activation (%)” value (MRGPRX4; second E3-8-1, 10000 nM, n = 2) was 3.79%, the “Activation (%)” value (MRGPRX4; second E3-8-1, 30000 nM, n = 1) was 2.24% and the “Activation (%)” value (MRGPRX4; second E3-8-1, 30000 nM, n = 2) was 2.24%. The “Efficacy (maximum measured induction of NanoLuc, normalized to CDCA set as 100%)” value (human FXR (NR1H4)) was “A (efficacy >400%)” and the EC50 (human FXR (NR1H4)) was under 1 µM.
